Source: ChEMBL document CHEMBL1154163, “Pyrazole-based cathepsin S inhibitors with arylalkynes as P1 binding elements” (Bioorg Med Chem Lett, 2009)

Columns and labels:
Cathepsin S [1] = target: Cathepsin S (Homo sapiens, UniProt P25774); assay: Inhibition of human recombinant cathepsin S expressed in baculovirus by FRET assay
[2] = Cmax in Sprague-Dawley rat at 10 mg/kg, po; type: ADME, organism-based; design: dose 10 mg/kg, route oral; settings: in vivo
Cathepsin B = Cathepsin B (Homo sapiens, UniProt P07858); assay: Inhibition of human cathepsin B
[3] = Half life in Sprague-Dawley rat at 2 mg/kg, iv; type: ADME, organism-based; design: dose 2 mg/kg, route intravenous; settings: in vivo
Cathepsin F = target: T1, Cathepsin F (Homo sapiens, UniProt Q9UBX1); assay: Inhibition of human cathepsin F
T1 sequence (Q9UBX1 whole entry): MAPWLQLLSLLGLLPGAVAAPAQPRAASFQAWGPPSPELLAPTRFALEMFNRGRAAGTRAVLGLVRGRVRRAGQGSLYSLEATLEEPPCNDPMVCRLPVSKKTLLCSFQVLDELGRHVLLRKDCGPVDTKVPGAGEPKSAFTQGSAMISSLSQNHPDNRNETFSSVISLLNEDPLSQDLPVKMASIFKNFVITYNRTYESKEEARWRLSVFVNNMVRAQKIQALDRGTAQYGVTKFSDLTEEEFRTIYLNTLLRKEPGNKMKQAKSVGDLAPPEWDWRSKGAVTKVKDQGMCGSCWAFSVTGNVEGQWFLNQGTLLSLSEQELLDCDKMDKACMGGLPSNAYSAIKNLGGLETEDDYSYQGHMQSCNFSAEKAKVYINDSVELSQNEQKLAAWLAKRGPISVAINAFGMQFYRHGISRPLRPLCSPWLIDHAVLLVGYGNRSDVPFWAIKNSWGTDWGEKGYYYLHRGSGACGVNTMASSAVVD

Rattus norvegicus = assay: AUC in Sprague-Dawley rat at 10 mg/kg, po; type: ADME, organism-based, Plasma; design: dose 10 mg/kg, route oral; settings: in vivo
[4] = Bioavailability in Sprague-Dawley rat at 2 mg/kg, iv; type: ADME, organism-based; settings: in vivo
[5] = Clearance in Sprague-Dawley rat at 2 mg/kg, iv; type: ADME, organism-based; design: dose 2 mg/kg, route intravenous; settings: in vivo
Cathepsin S [6] = target: Cathepsin S (Mus musculus, UniProt O70370); assay: Inhibition of mouse cathepsin S expressed in baculovirus by FRET assay
Procathepsin L = Procathepsin L (Homo sapiens, UniProt P07711); assay: Inhibition of human cathepsin L
Procathepsin L, sequence (P07711 whole entry): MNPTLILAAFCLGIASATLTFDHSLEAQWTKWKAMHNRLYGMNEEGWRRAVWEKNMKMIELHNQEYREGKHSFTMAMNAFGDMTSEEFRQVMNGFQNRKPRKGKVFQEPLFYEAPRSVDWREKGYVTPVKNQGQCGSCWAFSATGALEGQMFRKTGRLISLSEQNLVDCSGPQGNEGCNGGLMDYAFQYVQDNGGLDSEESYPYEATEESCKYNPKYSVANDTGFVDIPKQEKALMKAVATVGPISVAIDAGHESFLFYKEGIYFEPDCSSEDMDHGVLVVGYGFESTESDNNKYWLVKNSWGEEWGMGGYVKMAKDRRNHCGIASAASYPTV

Cathepsin S (Homo sapiens, UniProt P25774), sequence (P25774 whole entry): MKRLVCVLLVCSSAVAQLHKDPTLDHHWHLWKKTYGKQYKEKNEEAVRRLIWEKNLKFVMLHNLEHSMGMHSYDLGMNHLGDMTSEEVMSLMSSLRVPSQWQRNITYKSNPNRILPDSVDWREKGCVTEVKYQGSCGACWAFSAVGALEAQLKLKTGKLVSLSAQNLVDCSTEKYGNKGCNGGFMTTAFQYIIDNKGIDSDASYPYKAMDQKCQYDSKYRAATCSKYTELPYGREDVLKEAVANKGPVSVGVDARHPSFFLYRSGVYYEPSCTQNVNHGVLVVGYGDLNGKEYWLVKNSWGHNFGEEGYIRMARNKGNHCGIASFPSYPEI
Cathepsin S (Mus musculus, UniProt O70370), sequence (O70370 whole entry): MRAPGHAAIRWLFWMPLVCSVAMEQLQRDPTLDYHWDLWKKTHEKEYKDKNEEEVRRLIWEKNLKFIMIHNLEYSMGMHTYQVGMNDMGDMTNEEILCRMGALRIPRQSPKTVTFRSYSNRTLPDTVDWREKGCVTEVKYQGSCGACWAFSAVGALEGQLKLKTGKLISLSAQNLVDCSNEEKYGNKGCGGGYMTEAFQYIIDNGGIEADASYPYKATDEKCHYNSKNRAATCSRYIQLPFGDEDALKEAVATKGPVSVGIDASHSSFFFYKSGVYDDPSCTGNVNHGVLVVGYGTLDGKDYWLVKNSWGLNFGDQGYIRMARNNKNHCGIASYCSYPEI

Row | SMILES | IC50 (Cathepsin S [1]) [nM] | further results
1 | CS(=O)(=O)N1CCc2c(c(-c3ccc(Cl)c(C#Cc4ccc(C(=O)O)cc4)c3)nn2CCCN2CCOCC2)C1 | 510 | –
2 | COc1ccc(C#Cc2cc(-c3nn(CCCN4CCOCC4)c4c3CN(S(C)(=O)=O)CC4)ccc2Cl)cc1 | 480 | –
3 | CS(=O)(=O)N1CCc2c(c(-c3ccc(Cl)c(C#Cc4ccc(Cl)cc4)c3)nn2CCCN2CCOCC2)C1 | – | Cmax [2]: 530 nM; IC50 (Cathepsin B): > 20000 nM; half-life [3]: 2 h; IC50 (Cathepsin F): > 20000 nM; AUC (Rattus norvegicus): 48 uM.hr/L; bioavailability [4]: 21%; clearance [5]: 3 mL/min; IC50 (Cathepsin S [6]): 690 nM; IC50 (Procathepsin L): > 20000 nM
4 | COC(=O)N1CCc2c(c(-c3ccc(Cl)c(C#Cc4ccc(Cl)cc4)c3)nn2CCCN2CCOCC2)C1 | 40 | –
5 | Cc1ccccc1C#Cc1cc(-c2nn(CCCN3CCOCC3)c3c2CN(S(C)(=O)=O)CC3)ccc1Cl | 1100 | –
6 | COc1ccccc1C#Cc1cc(-c2nn(CCCN3CCOCC3)c3c2CN(S(C)(=O)=O)CC3)ccc1Cl | 550 | –
7 | CC#Cc1cc(-c2nn(CCCN3CCOCC3)c3c2CN(S(C)(=O)=O)CC3)ccc1Cl | 7400 | –
8 | CS(=O)(=O)N1CCc2c(c(-c3ccc(Cl)c(C#Cc4ccc(N)cc4)c3)nn2CCCN2CCOCC2)C1 | 430 | –

Continued by falling IC50 (Cathepsin S [1]), values first:

Row | IC50 (Cathepsin S [1]) [nM] | SMILES | further results
9 | 11000 | CCCCC#Cc1cc(-c2nn(CCCN3CCOCC3)c3c2CN(S(C)(=O)=O)CC3)ccc1Cl | –
10 | 1500 | CS(=O)(=O)N1CCc2c(c(-c3ccc(Cl)c(C#Cc4ccsc4)c3)nn2CCCN2CCOCC2)C1 | –
11 | 1500 | CS(=O)(=O)N1CCc2c(c(-c3ccc(Cl)c(C#Cc4cccc(C(F)(F)F)c4)c3)nn2CCCN2CCOCC2)C1 | –
12 | 330 | O=C(c1ccco1)N1CCc2c(c(-c3ccc(Cl)c(C#Cc4ccc(Cl)cc4)c3)nn2CCCN2CCOCC2)C1 | –
13 | 280 | CS(=O)(=O)N1CCc2c(c(-c3ccc(Cl)c(C#Cc4ccc(C(F)(F)F)cc4)c3)nn2CCCN2CCOCC2)C1 | –
